According to PubChem BioAssay (NCI):
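Grown in 96-well plates, cells were treated for 48 hours with each compound at five concentrations. Insufficient inhibition: endpoint recorded as highest concentration tested. At the TGI there is no net growth.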 *1 amine or outer side, *2 acyl side, *3 side chain or, on linkers, in order; H or OH if unused. Where a SMILES comes first, the peptide text is derived from it. Bridges are numbered along the chain shown (N, C = ends). [ ]: non-standard residue; d: D form. The star is where a group is joined. ξ: configuration not given here. X34 = O=C(C(CCCCNO[*:3])N[*:1])[*:2]; Fmoc = O=C(OCC1c2ccccc2-c2ccccc21)*; ξLac(3-iPr) = CC(C)CC(O)C(=O)O; NMeV = CN[CH](C(=O)O)C(C)C; NMeA = CN[CH](C)C(=O)O; βAla = NCCC(=O)O

What was measured:
Assay in all cases: NCI anticancer screen, dose series, 48 h
A549 NSCLC = system: A549 NSCLC
CAKI-1 renal = system: CAKI-1 renal
COLO 205 colon = system: COLO 205 colon
HL-60(TB) leukemia = system: HL-60(TB) leukemia
HOP-62 NSCLC = system: HOP-62 NSCLC
LOX IMVI melanoma = system: LOX IMVI melanoma
MCF7 breast = system: MCF7 breast
NCI-H23 lung = system: NCI-H23 lung
OVCAR-5 ovarian = system: OVCAR-5 ovarian
RPMI-8226 leukemia = system: RPMI-8226 leukemia
SF-268 CNS = system: SF-268 CNS
SK-MEL-5 melanoma = system: SK-MEL-5 melanoma
SNB-19 CNS = system: SNB-19 CNS
SR leukemia = system: SR leukemia
T-47D breast = system: T-47D breast
K-562 leukemia = system: K-562 leukemia
SK-MEL-28 melanoma = system: SK-MEL-28 melanoma

Structure (SMILES)	TGI (A549 NSCLC) [µM]	TGI (CAKI-1 renal) [µM]	TGI (COLO 205 colon) [µM]	TGI (HL-60(TB) leukemia) [µM]	TGI (HOP-62 NSCLC) [µM]	TGI (LOX IMVI melanoma) [µM]	TGI (MCF7 breast) [µM]	TGI (NCI-H23 lung) [µM]	TGI (OVCAR-5 ovarian) [µM]	TGI (RPMI-8226 leukemia) [µM]	TGI (SF-268 CNS) [µM]	TGI (SK-MEL-5 melanoma) [µM]	TGI (SNB-19 CNS) [µM]	TGI (SR leukemia) [µM]	TGI (T-47D breast) [µM]	TGI (K-562 leukemia) [µM]	TGI (SK-MEL-28 melanoma) [µM]
O=C(NNC(=S)NCc1ccccc1)c1csc(NC(=S)NC2CCCCC2)n1	> 100	> 100	49.6	> 100	> 100	> 100	> 100	> 100	> 100	58.2	> 100	28.2	> 100	> 100	95.4		
COc1ccc(N=NC(=Nc2ccc(Cl)cc2)c2ccc(N(CCC#N)CCC#N)cc2)cc1	> 100	> 100	> 100		> 100		> 100	> 100	> 100	> 100	> 100	> 100	> 100	> 100	78	> 100	> 100
COC1(OC)C=CC2C1C1C=CC2C1(OC)OC (stereo not given)	> 100	> 100	> 100		> 100	> 100	> 100	> 100	> 100	> 100	> 100	> 100	> 100	> 100	> 100	> 100	> 100
CN(C)c1nncc2n[nH]nc12	> 100	> 100	> 100	> 100	> 100	> 100	> 100	> 100	> 100	> 100		> 100		> 100	> 100	> 100	> 100
N#CC(C#N)N=Nc1ccc(-c2nc3ccccc3o2)cc1	47.6		23.9	40.2	38.5	29	36.2	29.9	36.1		> 100	5.56	60	42.6	25.2	54.7	32.3
COc1cc(/C=C\c2nnc(/C=C\c3ccc(O)c(OC)c3)s2)ccc1O	> 54.7	44.2	41.4	5.45	42	22.4	11.3	12.2	48.8		41.2	3.42	> 82.1	7.37	7.38	> 21.2	> 100
CC(=O)OC[C@@]12Cc3ccc(C)c(O)c3[C@]1(C)[C@@H](OC(C)=O)[C@]1(O)[C@H]([C@@H](OC(=O)c3ccccc3)[C@@H](C)[C@H]1OC(C)=O)[C@H]2OC(C)=O		> 50	> 50	> 50	> 50	> 50	> 50	> 50	> 50		> 50	> 50	> 50	> 50	> 50	> 50	
COc1cc2c(cc1OC)CC1c3cc(OC)c(OC)cc3CCN1CC2 (stereo not given)	> 100	> 100	> 100	> 100	> 100		> 100	68	> 100	> 100	> 100	> 100	76.2	> 100	> 100	> 100	> 100
CC(=O)OCC(C)(COC(C)=O)N1C(=O)C2C3c4ccccc4C(c4ccccc43)C2C1=O (stereo not given)	> 100	> 100	> 100	> 100		> 100	> 100	> 100	> 100	> 100	> 100	> 100	> 100	> 100	> 100	> 100	
COc1ccc(C2=C(N)c3ncccc3C2=O)cc1		> 100	> 100	> 100	> 100	> 100	> 100	> 100	> 100	> 100	> 100		> 100	> 100	> 100	> 100	> 100
CCC(C)C1NC(=O)C2CCCN2C(=O)C(CC(C)C)OC(=O)CCNC(=O)C(C)N(C)C(=O)C(C(C)C)N(C)C1=O (stereo not given) (cyclo([ξLac(3-iPr)]PI[NMeV][NMeA][βAla]); configuration not given here)	> 100	> 86.2	17.2	18.2	17.7		> 26.7	> 71.6	> 100	8.15	80.9	3.27	> 100	> 56.5	38.9	> 100	> 100
O/N=C1/CC2(N3CCOCC3)C3CC/C(=N\O)C2CC1(Cc1ccccc1)C3 (stereo not given)	> 100	> 100	> 100	> 100	> 100	> 100	> 100	> 100	> 100		> 100	> 100	> 100	> 100	> 100	> 100	> 100
O=c1[nH]c(=O)n(C2CC(O)C(CO)O2)c2nc3ccc4cc5ccccc5cc4c3nc12 (stereo not given)	> 100	> 100	> 100		> 100	> 100	> 100	> 100	> 100	> 100	> 100	> 100	> 100	> 100	> 100	> 100	> 100
ONC1=Nc2ccccc2C(=S)N2CSCC12 (stereo not given)	> 100	> 100	> 100		> 100	> 100	> 100		> 100	> 100	> 100	99.2	> 100	89	> 100	> 100	> 100
CCOC(OCC)N1C(=O)C2(C(OCC)OCC)CC3C(OC(=O)N3N)c3cccc1c32 (stereo not given)	> 100	> 100	> 100	> 100	> 100	> 100	> 100	> 100	> 100	> 100	> 100	> 100	> 100	> 100	> 100		> 100
CN(C(=O)C1=CCC2(CC1)OCCO2)c1ccccc1I	> 100	> 100	> 100	> 100	> 100	> 100	> 100	> 100	> 100	> 100		> 100	> 100	> 100	> 100	> 100	> 100
O=C(O)CCC(N=NNc1ccc(-c2nc3ccccc3[nH]2)cc1)C(=O)O (stereo not given)	> 100	> 100	> 100	> 100	> 100	> 100	> 100	> 100	> 100	> 100		> 100	> 100	> 100	> 100	> 100	> 100
COc1ccc(NC(C)=O)c(C(O)CCNC(C)=O)c1 (stereo not given)	> 100	> 100	> 100	> 100		> 100	> 100	> 100	> 100	> 100	> 100	> 100	> 100	> 100	> 100		
NC(=O)CNC(=O)C1CCCN1C(=O)C1CCCCNOC(=O)CCC(NC(=O)OCC2c3ccccc3-c3ccccc32)C(=O)NC(Cc2c[nH]c3ccccc23)C(=O)N1 (stereo not given) (Fmoc-EW[X34]PG-NH2; ester 1-3; configuration not given here)	> 100		> 100	> 100	> 100	> 100	> 100	> 100	> 100	> 100	> 100	> 100	> 100	> 100	> 100	> 100	> 100
CSc1nc2c(c(N3CCOCC3)n1)C(O)n1c(nc3ccccc31)S2 (stereo not given)	> 100	> 100		> 100	> 100	> 100	> 100	> 100	> 100	> 100	> 100	8.41	> 100	> 100	> 100		
CCN(CC)C1C(=O)NC1C#Cc1ccccc1 (stereo not given)		> 100	> 100	> 100	> 100	> 100	> 100	> 100	> 100	> 100	> 100	> 100	> 100	> 100	> 100	> 100	> 100
CC(C)(C)OC(=O)NCCNCCNc1ccccc1	> 100	> 100	> 100		> 100	> 100	> 100	> 100	> 100	> 100		> 100	> 100	> 100	> 100	> 100	> 100
Cn1c2ccccc2c(=O)c2cccc(C(=O)NCC(=O)O)c21	> 100		> 100		> 100	> 100	> 100	> 100	> 100	> 100	> 100	> 100	> 100	> 100	> 100	> 100	> 100
CC(C)(C)OC(=O)NCCCC(=O)NC1(c2cc3ccccc3s2)CCCCC1	> 100	93.1	29	24.8	41.5	29.6	41	51		29.6	39.7	19.9	> 100	27.9	> 100	51.4	31.3
Oc1cc(N2CCCC2)ccc1/C=N/N1C(=S)N(c2ccccc2)C(=Nc2ccccc2)C1=Nc1ccccc1	> 100	> 100	> 100		> 100		> 100	> 100	> 100	> 100	> 100	> 100	> 100	> 100	> 100	> 100	> 100
CCCCCCCCCCCCCCCCCCNc1nc(=O)n(C2CC(O)C(COP(=O)(O)OCC3OC(n4ccc(N)nc4=O)C(O)C3O)O2)cc1F (stereo not given)	> 100	> 100	> 100		> 100	22.3	> 100	> 100	> 100	> 100	> 100	> 100	> 100	> 100	> 100	> 100	> 100
Cc1ccc(OCC2OC(n3cnc4c(Cl)nc(Cl)nc43)CC2Oc2ccc(C)cc2)cc1 (stereo not given)	11.9	2.96	3.73	6.53	7.37	3.61	4.01	3.91	19.1		4.19	19.2	3.3	5.17	4.53		7.56
O=C1c2ccccc2C2C1C(c1ccccc1)C1(Cc3ccccc3C1=O)C2c1ccccc1 (stereo not given)	> 100		> 100	35.6	> 100	> 100	> 100	> 100	> 100		> 100	> 100	> 100	> 100	> 100	> 100	> 100
